One series deals with 3T3-L1 cells. The series can be described thus: Determination of glucose consumption in differentiated 3T3-L1 cells. Format: cell-based, mouse. Conditions: 22 hours, glucose 25 mM, insulin 0.25 nM, concentrations assayed 1, 5, 10, 25 μM. The protocol: Determination of Glucose Consumption in 3T3-L1 Cells
Glucose consumption was assessed in differentiated 3T3-L1 cells.
Mouse fibroblasts (3T3-L1) were seeded at a density of 5×10^3/cm^2 and cultured on 12-well plates in 1 ml of DMEM containing glucose 25 mM and added with 10% CS, glutamine 4 mM, pyruvate 1 mM, penicillin 50 U/ml, and streptomycin 50 μg/ml, in an atmosphere humidified with 5% CO2 at 37° C.
Two to three days after confluence, differentiation was induced with the addition of 1.5 ml of DMEM containing 3-isobutyl-1-methylxanthine (IBMX) 0.5 mM, dexamethazone 1 μM and porcine insulin 10 μg/ml in glucose 25 mM and 10% FBS.
After 2 days, the cells were exposed to the same medium without IBMX and dexamethazone for another 2 days. […]
The cells were used 10-12 days after induction of differentiation, as monitored by evaluating triglyceride accumulation. […]
The analysis of the glucose in the medium was done with the aid of a Cobas Mira S autoanalyzer (Roche), using the HK 125 Glucose Kit (ABX Diagnostics). The glucose concumprion stimulated by the products was evaluated as % increase compared to the control compound. […]

Another series relates to C57BL/KsJ db/db mice. The series can be described thus: Antidiabetic and serum lipid lowering activity in db/db mice. Conditions: oral twice daily for a fortnight, rosiglitazone 5 mg/kg, Example 22 25 mg/kg, vs control; for Reduction of glucose levels % / Reduction of triglyceride levels %: serum 7 hours after last treatment; for Change in GPT levels % / Change in HDL-cholesterol levels %: serum.

As a reminder, the melting point is the temperature, or range, at which the solid turns liquid.

Where a name gives a salt, the structure may show the parent alone. Marks after values point to notes of the source that are not given here.

Regarding `O=C1NC(=O)C(Cc2ccc(OCCc3ccc(Cl)cc3)cc2)S1` (centres unmarked) [Example 21, 5-[4-[2-(4-chlorophenyl)ethoxy]phenylmethyl]-thiazolidine-2,4-dione], the melting point lay within 147 to 148 °C.
On the same count and under the same terms, the same measure for `COC(=O)C(Cc1cccc(OC(=O)NCc2ccc(OC)cc2)c1)C(=O)OC`: 62 to 64 °C.
For the compound `COC(=O)C(Cc1cccc(OCCc2ccc(Cl)cc2)c1)C(=O)OC` [Example 22, dimethyl 3-[2-(4-chlorophenyl)ethoxy]-benzylmalonate], the “lowest concentration of those assayed to induce a 40% increase in glucose consumption” value in the series on 3T3-L1 cells turned out to be 1 µM. In the series with C57BL/KsJ db/db mice, the Weight gain % result is listed as “+16 ▴ %”, the “Reduction of glucose levels %” value is −32 Δ %, the “Reduction of triglyceride levels %” value is −47 ▴ % and the “Change in GPT levels %” value is “+38 ▴ %”. In the series with C57BL/KsJ db/db mice, the “Change in HDL-cholesterol levels %” value is “+37 ▴ %”.
For `CN(CCOc1ccc(CC2SC(=O)NC2=O)cc1)c1ccccn1` (centres unmarked) [Rosiglitazone, rosiglitazone, reference compound], in the series with 3T3-L1 cells, the “lowest concentration of those assayed to induce a 40% increase in glucose consumption” value is 5 µM. Besides, in the series on C57BL/KsJ db/db mice, the “Reduction of glucose levels %” value was −36 Δ %, the “Reduction of triglyceride levels %” value is listed as −41 ▴ %, the “Change in GPT levels %” value is “+117 ▴ %” and the “Change in HDL-cholesterol levels %” value is listed as −7%.
`O=C1NC(=O)C(=Cc2ccc(OCCc3ccc(Cl)cc3)cc2)S1` [Example 20, 5-[4-[2-(4-chlorophenyl)ethoxy]phenylmethylene]thiazolidine-2,4-dione]: the melting point was in the range of 202 to 203 °C.
For the compound `COC(=O)C(O)Cc1ccc(OCCn2ccc3ccccc32)cc1` (centres unmarked) [Example 12, methyl 2-hydroxy-3-[4-[2-(1-indolyl)ethoxy]-phenyl]propanoate], the melting point was 70 to 72 °C.
The same measure, in the same setting: the same measure for `COC(=O)Cc1ccc(OCCn2ccc3ccccc32)cc1` [Example 9, methyl 2-[4-[2-(1-indolyl)ethoxy]phenyl]acetate]: 50 to 52 °C.
Consider `O=C(O)C(Cc1ccc(OCCn2ccc3ccccc32)cc1)C(=O)O` [Example 5, 4-[2-(1-indolyl)ethoxy]benzylmalonic acid], for which the melting point lay in the range of 112 to 114 °C.
Take `COC(=O)C(=Cc1ccc(OCCn2ccc3ccccc32)cc1)C(=O)OC` [Example 3, dimethyl 4-[2-(1-indolyl]ethoxy]benzylidenemalonate]: the melting point was 68 to 70 °C.
Consider `COC(=O)C(Cc1ccc(OCCc2ccc3ccccc3c2)cc1)C(=O)OC` [Example 29, dimethyl 4-[2-(2-naphthyl)ethoxy]benzyl-malonate], for which the melting point stood at 68.5 °C.
Regarding `COC(=O)C(Cc1ccc(OC(=O)NCc2ccc(OC)cc2)cc1)C(=O)OC` (as salt: malonate), the melting point came to 78.6 °C.
Still for that read-out and setting: the same measure for `COC(=O)CCc1ccc(OCCn2ccc3ccccc32)cc1` [Example 8, methyl 3-[4-[2-(1-indolyl)ethoxy]phenyl]-propanoate]: 85 °C; for `COC(=O)C(Cc1ccc(OC(=O)Nc2ccc([N+](=O)[O-])cc2)cc1)C(=O)OC`: 128 to 130 °C.
As to `COC(=O)C(Cc1cccc(OC(=O)Nc2ccc(Cl)cc2)c1)C(=O)OC`, the melting point was 79 to 80 °C.
With `CCOC(=O)[C@H](Cc1ccc(OC(=O)NCc2ccc(OC)cc2)cc1)NC(=O)c1ccccc1`, the melting point is 149 to 151 °C.
In turn, `COC(=O)C(Cc1ccc(OC(=O)Nc2ccc(Cl)cc2)cc1)C(=O)OC` showed a melting point of 125 to 127 °C.
Regarding `COC(=O)C(Cc1ccc(OC(=O)Nc2ccc(Cl)cc2Cl)cc1)C(=O)OC`, the melting point is 84 °C.
Same read-out and setting: the same measure for `CCCCc1ccc(NC(=O)Oc2ccc(CC(C(=O)OC)C(=O)OC)cc2)cc1`: 90 to 92 °C; for `O=C1NC(=O)C(Cc2cccc(OCCc3ccc(Cl)cc3)c2)S1` (centres unmarked) [Example 47, 5-[3-[2-(4-chlorophenyl)ethoxy]phenylmethyl]thiazolidine-2,4-dione]: 90 to 91 °C; for `O=C1NC(=O)C(=Cc2cccc(OCCc3ccc(Cl)cc3)c2)S1` [Example 46, 5-[3-[2-(4-chlorophenyl)ethoxy]phenylmethylene]thiazolidine-2,4-dione]: 186 to 187 °C.

(Values after US20050032787A1, “Pheny (alkyl)carboxylic acid derivatives and dionic phenylalkylheterocyclic derivatives and their use as medicines with serum glucose and/or serum lipid lowering activity” (priority 2002, published 2005).)
